test system: A673 NR0B1-luciferase reporter, viability-normalised luminescence; assay: suppressors of NR0B1-promoter luciferase reporter, dose response, EWS/Fli inhibitor project, luciferase luminescence, A673 cells, cherry-pick (AID 686920)

| SMILES | AC35 [µM] |
| --- | --- |
| CCc1ccc(/C=C2\SC(=S)N(CCCC(=O)NCCCN3CCOCC3)C2=O)cc1 | 1.98 |
| COc1ccc(/C=C(/C(=O)c2cccs2)N2C=CC=CC2=C(C#N)C#N)cc1 | 37.2 |
| CCc1ccc(/C=C2\SC(=S)N(CCCC(=O)NC3=NCCS3)C2=O)cc1 | 0.588 |
| O=C1NC(=O)N(Cc2ccc(F)cc2)C(=O)/C1=C\C=C\c1ccco1 | 7.32 |
| C[C@H]1CN([C@@H](C)CO)C(=O)c2cccc(NC(=O)CCCCCC(=O)Nc3ccccc3N)c2O[C@@H]1CN(C)Cc1ccc2c(c1)OCO2 | 15.2 |
| Cc1nc2cc(-c3ccc(Cl)cc3)nn2c(C)c1CCC(=O)NC(C)c1ccc2c(c1)OCCO2 (stereo not drawn) | 0.847 |
| COc1ccc(NC(=O)N(C)[C@H]2C[C@H]3c4[nH]c5ccccc5c4CCN3C(=O)[C@H]2CO)cc1 | 12 |
| O=C1NC2C(=CC(O)C(O)C2O)c2cc3c(cc21)OCO3 (stereo not drawn) | 0.429 |
| C(=N\Nc1ccc2ccccc2n1)/c1ccc2c(c1)OCCO2 | 0.728 |
| COC(=O)c1cccc(NC(=O)NC(=O)c2ccc(Cl)cc2)c1 | 0.225 |
| COc1ccc(S(=O)(=O)N=Nc2c(O)[nH]c3ccccc23)cc1 | 34.7 |
| CCN1CCN(/C=N/c2nc3c(s2)CCCC3)CC1 | 7.97 |
| O=C(Nc1nc(-c2ccc(F)c(F)c2)cs1)c1ccc(OCC2CCCO2)cc1 (stereo not drawn) | 30 |
| CC(=NNc1cc(C)c2ccccc2n1)c1ccccn1 | 8.23 |
| CC(C)(C)c1ccc(Oc2ccc(N)cn2)cc1 | 1.2 |
| COc1ccc2oc(-c3ccccc3)cc(=O)c2c1 | 8.22 |
| O=C(c1cccc(S(=O)(=O)NCc2ccccc2)c1)N1CCN(c2ccccc2)CC1 | 11.6 |
| C[C@H](CO)N1C[C@H](C)[C@H](CN(C)Cc2ccc(Oc3ccccc3)cc2)Oc2ccc(NC(=O)CCCCCC(=O)Nc3ccccc3N)cc2CC1=O | 4.15 |
| COc1ccc(C(=O)CN2C(=O)c3ccccc3S2(=O)=O)cc1 | 0.279 |
| Cc1nc2ncccn2c1-c1csc(Nc2ccc(O)cc2)n1 | 8.68 |
| C[C@@H]1CCCCO[C@H](CN(C)Cc2ccc(C(=O)Nc3ccccc3N)cc2)[C@@H](C)CN([C@@H](C)CO)C(=O)c2cc(NS(=O)(=O)c3ccc(Cl)cc3)ccc2O1 | 6.13 |
| CC1OC(OC2CC(O)C3(CO)C4C(O)CC5(C)C(C6=CC(=O)OC6)CCC5(O)C4CCC3(O)C2)C(O)C(O)C1O (stereo not drawn) | 0.0738 |
| CN(CCO)c1ccc(/C=N/Nc2nncc3ccccc23)cc1 | 5.2 |
| CCOc1ccc(-c2cc(CCCC(=O)N3CCN(c4ccc(OC)cc4)CC3)no2)cc1 | 27.6 |

| SMILES | AC35 [µM] |
| --- | --- |
| C[C@H]1CN([C@@H](C)CO)C(=O)c2cc(NS(=O)(=O)c3ccc(Cl)cc3)ccc2O[C@H]1CN(C)Cc1ccc(C(=O)Nc2ccccc2N)cc1 | 14.5 |
| C[C@@H]1CN([C@H](C)CO)C(=O)CCCn2nncc2CO[C@H]1CN(C)Cc1ccc(Oc2ccccc2)cc1 | 34.1 |
| CCOc1cc(/C=N/Nc2cc(C)nc(-n3nc(C)cc3C)n2)ccc1O | 35.8 |
| O=c1c2ccccc2oc2cc(C#CC3(O)CCCCC3)ccc12 | 4.33 |
| COC(=O)c1cccc(NC(=O)NC(=O)c2ccccc2Cl)c1 | 0.215 |
| Cc1c(CC(=O)NCCCC(=O)O)c(=O)oc2cc3c(cc12)CCC(C)(C)O3 | 2.74 |
| C[C@H](CO)N1C[C@H](C)[C@H](CN(C)CC2CCCCC2)Oc2ccc(NC(=O)CCCCCC(=O)Nc3ccccc3N)cc2CC1=O | 4.96 |
| CCCCNC1=CC(=O)C(=O)c2ccccc21 | 6.17 |
| C[C@H]1CN([C@@H](C)CO)S(=O)(=O)c2ccc(C#Cc3ccncc3)cc2O[C@@H]1CN(C)C(=O)Nc1ccc2c(c1)OCO2 | 10.1 |
| O=C(NC1CCCC1)N1CCCCN2[C@@H](CO)[C@@H](c3ccc(/C=C/c4ccccc4)cc3)[C@@H]2C1 | 14.3 |
| O=C1NC(=O)N(Cc2ccccc2)C(=O)/C1=C\C=C\c1ccco1 | 10.4 |
| C[C@H](CO)N1C[C@H](C)[C@H](CN(C)Cc2ccc(Oc3ccccc3)cc2)Oc2ccc(NC(=O)Cn3cnnn3)cc2CC1=O | 33.2 |
| O=c1oc2cc(O)ccc2s1 | 11.8 |
| CCOC(=O)C1CCCCN1C(=O)CCc1c(C)nc2cc(-c3ccccc3)nn2c1C (stereo not drawn) | 1.16 |
| C[C@H]1CN([C@@H](C)CO)C(=O)Cc2cc(NC(=O)CCCCCC(=O)Nc3ccccc3N)ccc2O[C@H]1CN(C)Cc1ccc(C(F)(F)F)cc1 | 6.15 |
| Nc1nc(N)c2cc(Sc3ccc4ccccc4c3)ccc2n1 | 2.1 |
| CCCn1c(C)cc(C(=O)CN2C(=O)c3ccccc3S2(=O)=O)c1C | 1.25 |
| C[C@@H]1CN([C@H](C)CO)S(=O)(=O)c2ccc(C#CC3CC3)cc2O[C@@H]1CN(C)Cc1ccccc1F | 30.4 |
| O=c1ccc2[n+]([O-])c3ccc(O)cc3oc-2c1 | 3.7 |
| COc1ccc(NC(=O)c2cc3ccccc3oc2=O)cc1 | 2.99 |
| C[C@@H]1CCCCO[C@H](CN(C)Cc2ccc(C(=O)Nc3ccccc3N)cc2)[C@@H](C)CN([C@H](C)CO)C(=O)c2cc(NS(=O)(=O)c3ccc(Cl)cc3)ccc2O1 | 5.04 |
| O=C(NC1CCCC1)C(c1ccccc1)n1c(CSCCOc2ccccc2)nc2ccccc21 (stereo not drawn) | 2.19 |
| COc1cccc(O)c1CN1CCC(C(=O)Nc2ccc(-c3cccc(C)c3)cc2)CC1 | 29.1 |
| C[C@H](CO)N1C[C@H](C)[C@H](CN(C)Cc2ccc(C(=O)Nc3ccccc3N)cc2)Oc2ccc(NS(=O)(=O)c3cccs3)cc2C1=O | 11.6 |

| SMILES | AC35 [µM] |
| --- | --- |
| COc1cc2oc3cc(C#Cc4ccc(N)cc4)ccc3c(=O)c2cc1OC | 10.3 |
| C=CC[n+]1c(-c2ccc(C)cc2)csc1Nc1ccc(NC(C)=O)cc1 | 15.6 |
| O=C1/C(=C\c2ccccc2)CN(C(=O)CCN2CCCCC2)C/C1=C/c1ccccc1 | 2.54 |
| C[C@H]1CCCCO[C@H](CN(C)Cc2ccc(C(F)(F)F)cc2)[C@@H](C)CN([C@@H](C)CO)C(=O)c2cc(NC(=O)Nc3ccccc3)ccc2O1 | 19.4 |
| CCOc1ccc2nc(NC3=NC(c4ccc(OC)cc4)CC(=O)N3)nc(C)c2c1 (stereo not drawn) | 9.3 |
| CCCc1cc(=O)oc2c3c(c4c(c12)OC(C)(C)C=C4)OC(C)C(C)C3O (stereo not drawn) | 33.3 |
| C[C@@H]1CN([C@H](C)CO)C(=O)c2cc(NC(=O)CCCCCC(=O)Nc3ccccc3N)ccc2O[C@H]1CN(C)S(=O)(=O)c1ccc(Cl)cc1 | 35.2 |
| Cc1ccc2oc(/N=C(\N)NC(=O)C(C)(C)C)nc2c1 | 0.18 |
| C[C@@H]1CN([C@@H](C)CO)C(=O)c2cc(NS(=O)(=O)c3ccc(F)cc3)ccc2O[C@@H]1CN(C)Cc1ccc(C(=O)Nc2ccccc2N)cc1 | 9.48 |
| CCc1cnc(N2[C@H](C#N)[C@H](c3ccc(C#Cc4ccccc4F)cc3)[C@H]2CO)s1 | 9.23 |
| COc1ccc(C=C2CCc3ccccc3C2=O)cc1 | 10.4 |
| Cc1[nH][nH]c(=O)c1C(c1c(C)[nH][nH]c1=O)c1cn(Cc2ccc(Cl)c(Cl)c2)c2ccccc12 | 4.99 |
| CC(C)c1ccccc1NC(=O)COC(=O)CCN1C(=O)/C(=C\C=C\c2ccccc2)SC1=S | 1.9 |
| CCCC[C@@H]1Cc2[nH][nH]c(=O)c2[C@H](c2ccc3ccccc3c2)O1 | 11.8 |
| C(=N\Nc1ccc2ccccc2n1)/c1ccc2c(c1)OCO2 | 5.76 |
| Cc1c(-c2nc(-c3ccc(C(C)(C)C)cc3)no2)n(C)oc1=O | 35.5 |
| O=C1NC(=O)N(c2ccccc2)C(=O)/C1=C\C=C\c1ccccc1 | 8.31 |
| CC1(C)Oc2cc3oc(-c4cc(O)cc(O)c4)cc3cc2CC1O (stereo not drawn) | 2.07 |
| O=C1Nc2ccccc2C1=Nc1ccc(Br)cc1 | 15.6 |
| Cc1ccc(/C=C/C(=O)N2CCN(S(=O)(=O)c3c(C)c(C)cc(C)c3C)CC2)o1 | 49 |
| O=C1Nc2cc(C(=O)NCCN3CCCCCC3)ccc2S/C1=C\c1ccccc1 | 11.6 |
| Cc1cc(C(=O)Nc2ccc3c(c2)C(=O)N(C)[C@@H]2CC[C@@H](CC(=O)NCc4ccc(-c5ccccc5)cc4)O[C@H]2CO3)no1 | 6.29 |
| O=C1NC(=O)N(CCc2ccc(F)cc2)C(=O)/C1=C/C=C/c1ccccc1 | 2.66 |
| COc1ccc(S(=O)(=O)N2CC[C@@H]3[C@H](CO)Nc4ccc(-c5ccc(C#N)cc5)cc4[C@@H]32)cc1 | 4.3 |

| SMILES | AC35 [µM] |
| --- | --- |
| Cc1ccc(NC(=O)CCN2CCCCC2)cc1 | 26.1 |
| C[C@@H]1CN([C@@H](C)CO)C(=O)c2cccc(NS(=O)(=O)c3ccc(Cl)cc3)c2O[C@@H]1CN(C)Cc1ccc(C(=O)Nc2ccccc2N)cc1 | 5.31 |
| CC(=O)c1ccc(N=Nc2ccc(C)cc2)cc1 | 8.92 |
| C[C@H]1CN([C@@H](C)CO)C(=O)c2cccc(NC(=O)c3ccc(-c4nccs4)cc3)c2O[C@@H]1CN(C)Cc1ccc(C(=O)Nc2ccccc2N)cc1 | 14.1 |
| CCNC(=O)c1cc2c(c(-c3cccc(-c4cccc(OC)c4)c3)n1)[C@H](CCO)N([S@@](=O)C(C)(C)C)C2 | 6.78 |
| Cc1cc(Br)ccc1N=C1C(=O)Nc2ccccc21 | 5.12 |
| C/C(=N\Nc1cccc2cccnc12)c1ccccn1 | 19 |
| C[C@H](CO)N1C[C@H](C)[C@@H](CN(C)Cc2ccc(Oc3ccccc3)cc2)Oc2ccc(NS(=O)(=O)c3ccc(Cl)cc3)cc2CC1=O | 22.8 |
| Cc1ccsc1C(=O)OCC(=O)c1cc(C)n(C)c1C | 6.2 |
| COC(=O)Cc1[nH]n(-c2nc3ccccc3s2)c(=O)c1C(C)=Nc1ccc(C)cc1 | 0.17 |
| C[C@]12CCC3C(CCC4=CC(O)CC[C@@]43/C=N/O)C1(O)CCC2C1=CC(=O)OC1 (stereo partly drawn) | 0.529 |
| CC12CCC(O)CC1CCC1C2CCC2(C)C(C3=CC(=O)OC3)CCC12O (stereo not drawn) | 0.391 |
| Nc1nc(=S)c2[nH]cnc2[nH]1 | 2.5 |
| C[C@@H]1O[C@@H](O[C@@H]2C=C3CCC4C(CC[C@]5(C)[C@@H](c6ccc(=O)oc6)CC[C@]45O)[C@@]3(C)CC2)[C@H](O)[C@H](O)[C@H]1O (stereo partly drawn) | < 0.09 |
| COc1ccc(/C=N/Nc2ccc(C(=O)O)cc2)cc1Br | 3.93 |
| COc1ccc(S(=O)(=O)Nc2cccc3c2O[C@H](CN(C)Cc2ccc(C(=O)Nc4ccccc4N)cc2)[C@H](C)CN([C@@H](C)CO)C3=O)cc1 | 5.64 |
| N#CC1C=Cc2c(ccc3ccccc23)N1C(=O)c1ccccc1 (stereo not drawn) | 0.692 |
| COc1ccc(C2=Nn3c(nnc3-c3ccccc3F)SC2)cc1OC1CCOC1 (stereo not drawn) | 4.37 |
| O=C(C[C@@H]1C[C@H]2c3cc(NS(=O)(=O)c4ccc(F)cc4)ccc3O[C@H]2[C@H](CO)O1)NCc1ccc(-c2ccccc2)cc1 | 2.03 |
| Cc1ccc(C(=O)CN2C(=O)c3ccccc3S2(=O)=O)cc1 | 1.97 |
| O=c1cc(CN2CCN(Cc3ccccc3)CC2)c2ccc(O)c(O)c2o1 | 23.3 |

— PubChem BioAssay AID686920 (Broad Institute, 2013)
